Measurements reported in US5354758A, “Benzomorphans useful as NMDA receptor antagonists” (priority 1992, dated 1994).
Like-named read-outs stand apart in the source and are kept apart here.

Experiments:
[1] = target: T1, σ-site of opioid receptor (Cavia porcellus, UniProt Q60492); experiment: In vitro binding, inhibition of [^3 H]PPP binding to guinea pig brain homogenate; design: species or system Hartley guinea pig; conditions: guinea pig brain homogenate, 0.6 nM [^3 H]PPP, 25° C., 1 hour
T1 construct: Hartley guinea pigs were decapitated, and the brains were removed and homogenized; from tissue; host or cells: Hartley guinea pig brain homogenate (washed membranes)
Experimental: (§1) As described below, the compounds of the invention were tested for their ability to inhibit binding of radiolabeled versions of these known ligands.
Hartley guinea pigs were decapitated, and the brains were removed and homogenized in 20 volumes of 50 mM Tris-HCl using a Polytron homogenizer. The homogenate was centrifuged at 27,000×G for 15 minutes, and the pellet was resuspended in 50 mM Tris-HCl. The centrifugation procedure was repeated twice. The pellet was diluted to approximately 8 mg wet tissue/assay. Various concentrations of the test compounds (100 μL) and [^3 H]PPP (100 μL, final concentration 0.6 nM) were incubated with 1.8 mL of the tissue homogenate at 25° C. for 1 hour. Unlabeled PPP (final concentration 10 μM) was added to some tubes to determine nonspecific binding. The reaction was stopped by filtration through GF/B filters using a Brandel Cell Harvester. After washing twice with […] of ice cold Tris-HCl, the filters were suspended in 5 mL of scintillation fluid, and the radioactivity was counted after standing at room temperature overnight.
Table 1 summarizes the results of the in vitro binding studies using these three radioligands at the NMDA receptor site, μ-site and σ-site of opioid receptor, respectively.

[2] = target: T2, μ-site of opioid receptor (Rattus norvegicus, UniProt P33535); experiment: In vitro binding, inhibition of [^3 H]DAGO binding to rat forebrain synaptic membranes; design: species or system Sprague-Dawley rat
T2 construct: Semipurified synaptic membranes were prepared according to the method of Toll et al. (1984); from tissue; host or cells: adult male Sprague-Dawley rat forebrain membranes
Experimental: as §1
Semipurified synaptic membranes were prepared according to the method of Toll et al. (1984). Adult male Sprague-Dawley rats were decapitated, and the forebrains were removed, weighed, and homogenized in 20 volumes of […] Tris-HCl, pH 7.7. The homogenate was centrifuged at 27,000×G for 15 minutes, and the resulting pellet was resuspended in buffer and recentrifuged twice. The washed membranes were resuspended in buffer to obtain a membrane concentration of 7.2 mg brain weight/mL; the final concentration in each assay tube was 12.2 mg/2 mL. […] The reaction was stopped by filtration through GF/B filters using a Brandel Cell Harvester. After washing twice with 5 mL of ice cold buffer, the filters were suspended in 5 mL scintillation fluid, and the radioactivity was counted after standing at room temperature overnight.

NMDA-induced lethality = experiment: In vivo protection in the mouse against NMDA-induced lethality; design: species or system Swiss-Webster mouse; conditions: ip, 30 minutes before 200 mg/kg NMDA, eight mice per dose, Litchfield and Wilcoxin; for ED50: Mus musculus
Experimental: According to the method described by Ferkany et al. (1988), the test compounds were administered ip to four male Swiss-Webster mice (26-34 g) each, following 30 minutes later, 200 mg/kg of NMDA was administered to the mice each. […] Those compounds that protected three or more of the mice at any of the doses were evaluated further by determining the ED50 values using three or more doses with the eight mice per dose. The ED50 was estimated by the method of Litchfield and Wilcoxin (1949). Water-soluble compounds were dissolved in distilled water and administered in a volume of 10 ml/kg. Water-insoluble compounds were suspended in an aqueous solution of 0.5% methyl cellulose and administered in a volume of 20 ml/kg.

NMDA receptor site [3] = experiment: In vitro binding, inhibition of [^3 H]MK-801 binding to rat forebrain synaptic membranes; design: species or system Sprague-Dawley rat; conditions: 3 nM [^3 H]MK-801, 50 μM glycine and glutamate, 37° C., 2 hours, read-out: Ki [^3 H]MK801
Experimental: as §1
Semipurified synaptic membranes were prepared according to the method of Bristow et al. (1986) with minor modifications. Sprague-Dawley rats were decapitated and the forebrains were removed, weighed, and homogenized in 20 volumes of 0.32M sucrose. The homogenate was centrifuged at 121×G for 10 min. The resulting supernatant was recentrifuged at 27,000×G for 15 min. The pellet was resuspended in 20 volumes of distilled water and this suspension was centrifuged at 8,000×G for 10 min. Both the supernatant and the buffy coat layer, removed with 2 mL of 5 mM Tris-Cl (pH 7.8), were pooled and centrifuged at 27,000×G for 15 min. The supernatant was removed, the pellet was covered with a small amount of 5 mM Tris-Cl, and the sample was frozen for at least 18 hrs at -20° C. Membranes were then washed four times in 5 mM Tris-Cl and finally resuspended in 25 mL. This preparation was used for the binding assay immediately or frozen for subsequent use.
The incubation was terminated by rapid filtration (Brandel Cell Harvester) over Whatman GF/B filters, which were then washed twice with 5 mL of 5 mM Tris-HCl. Radioactivity trapped on the filters was counted in 5 mL Scintiverse II at 50% efficiency in 7 mL minivials after standing at room temperature overnight.

NMDA receptor site [4] = conditions: shown previously; cited from earlier work
[5] = Ki [^3 H]DAGO, 2 nM [^3 H]DAGO, 25° C., 1 hour

T1 sequence (Q60492 whole entry): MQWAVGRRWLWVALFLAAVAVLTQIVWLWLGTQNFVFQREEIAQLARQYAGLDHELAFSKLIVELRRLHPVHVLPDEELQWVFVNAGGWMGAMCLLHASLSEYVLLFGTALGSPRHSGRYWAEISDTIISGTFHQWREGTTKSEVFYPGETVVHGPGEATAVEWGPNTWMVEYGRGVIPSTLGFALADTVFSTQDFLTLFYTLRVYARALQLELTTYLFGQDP
T2 sequence (P33535 whole entry): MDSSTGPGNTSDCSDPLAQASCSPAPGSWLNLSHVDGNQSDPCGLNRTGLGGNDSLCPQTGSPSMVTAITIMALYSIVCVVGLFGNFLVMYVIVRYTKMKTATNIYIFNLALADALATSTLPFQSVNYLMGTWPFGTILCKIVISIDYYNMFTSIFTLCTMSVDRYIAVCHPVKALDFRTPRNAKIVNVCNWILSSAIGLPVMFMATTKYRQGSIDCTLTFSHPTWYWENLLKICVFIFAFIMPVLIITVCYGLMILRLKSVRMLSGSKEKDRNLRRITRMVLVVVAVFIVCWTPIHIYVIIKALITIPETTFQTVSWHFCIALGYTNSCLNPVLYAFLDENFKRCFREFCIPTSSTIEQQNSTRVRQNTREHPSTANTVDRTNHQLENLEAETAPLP

Compound | Ki ([1]; read-out: Ki [^3 H]PPP) [nM] | Ki [2, 5] [µM] | ED50 (NMDA-induced lethality) [mg/kg] | Ki (NMDA receptor site [3]) [µM] | Mouse ED50 (NMDA-induced lethality) [mg/kg] | Ki ([2]; read-out: Ki [^3 H]DAGO, 2 nM [^3 H]DAGO, 25° C., 1 hour) [µM] | Ki ([1]; Ki [^3 H]PPP) [nM] | high-affinity ligand at the NMDA receptor site (NMDA receptor site [4])
CC(C1CO1)N1CC[C@]2(C)c3ccccc3C[C@H]1[C@H]2C (mixture of isomers) [(+)-BZ-5 (Mixture of Isomer B and C), (1S,5S,9S)-(+)-5,9-Dimethyl-2-(1-methyl-2,3-epoxypropyl)-6,7-benzomorphan] | 42 | 12.4 | 32.5 |  |  |  |  | 
C=CC(C)N1CC[C@]2(C)c3ccccc3C[C@H]1[C@H]2C (single isomer, unassigned; (+)) [(+)-BZ-2] | 100 | 9.58 | 22.1 | 1.32 |  |  |  | 
CC(C1CCC1)N1CC[C@]2(C)c3ccccc3C[C@H]1[C@H]2C (single isomer, unassigned; (+)) [(+)-BZ-3 (Isomer A)] | 1.2 | 11.8 |  | 0.22 | 16.4 |  |  | 
CC(C1CCC1)N1CC[C@]2(C)c3ccccc3C[C@H]1[C@H]2C (single isomer, unassigned; (+)) [(+)-BZ-3 (Isomer B)] | 8.1 | 13.5 |  | 3.61 | > 60 |  |  | 
C=CC(C1CC1)N1CC[C@]2(C)c3ccccc3C[C@H]1[C@H]2C (single isomer, unassigned; (+)) [(+)-BZ-4] | 130 | 20.2 | 24.1 | 11.5 |  |  |  | 
CC(C1CO1)N1CC[C@]2(C)c3ccccc3C[C@H]1[C@H]2C (single isomer, unassigned; (+)) [(+)-BZ-5 (Isomer A)] | 40 | 9.74 |  | 29.2 |  |  |  | 
CC(C1CO1)N1CC[C@]2(C)c3ccccc3C[C@H]1[C@H]2C (single isomer, unassigned; (+)) [(+)-BZ-5] | 11 | 5.8 |  | 11.6 |  |  |  | 
C#CC(C)N1CC[C@]2(C)c3ccccc3C[C@H]1[C@H]2C (single isomer, unassigned; (+)) [(+)-BZ-6 (Isomer A)] | 19200 | 12.3 |  | 16.6 | > 50 |  |  | 
C#CC(C)N1CC[C@]2(C)c3ccccc3C[C@H]1[C@H]2C (single isomer, unassigned; (+)) [(+)-BZ-6 (Isomer B)] | 1100 | 9 |  | 2.55 | 18.8 |  |  | 
CC(C1CC1)N1CC[C@]2(C)c3cc(F)ccc3C[C@H]1[C@H]2C (single isomer, unassigned; (+)) [(+)-BZ-14 (Isomer A)] | 14 | 0.72 |  | 0.85 | 6.1 |  |  | 
CC(C1CC1)N1CC[C@]2(C)c3cc(F)ccc3C[C@H]1[C@H]2C (single isomer, unassigned; (+)) [(+)-BZ-14 (Isomer B)] | 62 |  |  | 3.53 | 13 | 5.01 |  | 
CC(C1CC1)N1CC[C@]2(C)c3ccccc3C[C@H]1[C@H]2C (single isomer, unassigned; (+)) [(+)-IIId-7 (Isomer A)] | 20 | 3.05 |  | 0.75 | 6.8 |  |  | 
CC(C1CC1)N1CC[C@]2(C)c3ccccc3C[C@H]1[C@H]2C (single isomer, unassigned; (+)) [(+)-IIId-7 (Isomer B)] | 71 | 6.58 |  | 1.99 | 13.7 |  |  | 
C[C@@H]1[C@@H]2Cc3ccccc3[C@@]1(C)CCN2C(C1CC1)C1CC1 [(+)-BZ-1, (1S,5S,9S)-(+)-2-Dicyclopropylmethyl-5,9-dimethyl-6,7-benzomorphan] | 160 | 11.5 | 33.1 | 14 |  |  |  | 
CC(C)N1CC[C@]2(C)c3cc(F)ccc3C[C@H]1[C@H]2C [(+)-BZ-13, (1S,5S,9S)-(+)-2'-Fluoro-2-isopropyl-5,9-dimethyl-6,7-benzomorphan] | 260 | 20.2 | 9 | 4.15 |  |  |  | 
C[C@@H]1[C@@H]2Cc3ccccc3[C@@]1(C)CCN2C(C)(C)C [(+)-BZ-15A, (1S,5S,9S)-(+)-2-Tert-butyl-5,9-dimethyl-6,7-benzomorphan] | 980 | 7.29 | 10.7 | 2.59 |  |  |  | 
C[C@@H]1[C@@H]2Cc3ccccc3[C@@]1(C)CCN2O [(+)-BZ-17A, (1S,5S,9S)-(+)-2-hydroxy-5,9-dimethyl-6,7-benzomorphan] | 25900 | 21.9 | 21.6 | 43 |  |  |  | 
C[C@@H]1[C@@H]2Cc3ccccc3[C@@]1(C)CCN2N(C)C [(+)-BZ-18, (1S,5S,9S)-(+)-5,9-dimethyl-2-dimethylamino-6,7-benzomorphan] | 810 |  | 14.4 | 4.54 |  |  |  | 
CC(C)N1CC[C@]2(C)c3cc(Cl)ccc3C[C@H]1[C@H]2C [(+)-BZ-26, (1S,5S,9S)-(+)-2'-Chloro-2-isopropyl-5,9-dimethyl-6,7-benzomorphan] | 74 | 11.8 | 12.2 | 12.8 |  |  |  | 
CC(C)N1CC[C@]2(C)c3ccccc3C[C@H]1[C@H]2C [(+)-IIId-6, (1S,5S,9S)-(+)-2-Isopropyl-5,9-dimethyl-6,7-benzomorphan] | 560 | 18.9 | 17.3 | 3.51 |  |  |  | 
COc1ccc2c(c1)[C@]13CCCC[C@@H]1[C@H](C2)N(C)CC3 [Dextromethorphan, reference compound] |  | 1.74 | 39 |  |  |  | 150 | 
CN1CC[C@@]23CCCC[C@@H]2[C@@H]1Cc1ccc(O)cc13 [Dextrorphan, reference compound] |  | 2.2 |  |  | 34.6 |  |  | 
C[C@]12N[C@H](Cc3ccccc31)c1ccccc12 [MK-801] |  |  |  |  |  |  |  | high-affinity
